This note sets out measurements from patent publication US20230234942A1, “COMPOUNDS FOR TREATING HUNTINGTON'S DISEASE” (PTC Therapeutics, Inc., priority 2020, published 2023).

The test system of the test is Endogenous Huntingtin Protein. The test is described as follows: Endogenous Huntingtin Protein Assay (ELISA-based MSD electrochemiluminescence). Type of test: cell-based. The following applies: Table 2; MSD plates coated with MW1 (expanded polyglutamine) or MAB2166 capture antibody; "inactive" = result above the detection limit of the assay. Summed up: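 Endogenous huntingtin measured on MSD plates coated with MW1 (polyglutamine-expanded) or MAB2166 capture antibody; lysates bound overnight at 4 °C. Signal developed with #56565 rabbit monoclonal and goat anti-rabbit SULFO-TAG (0.25 µg/mL, 1 h RT each), electrochemiluminescence read on SI 6000.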
A word on the IC50: it is the concentration that gives 50% inhibition. A high value points to a need for much substance. In turn, `[2H]C([2H])([2H])Oc1cc(-c2ccc(-c3cnc(N4CCN[C@@H](C(C)C)C4)nn3)c(O)c2)ncn1` [Cpd 10, 5-{6-[(^2H3)methyloxy]pyrimidin-4-yl}-2-{3-[(3S)-3-(propan-2-yl)piperazin-1-yl]-1,2,4-triazin-6-yl}phenol] had an IC50 of 9.5 nM.

For the compound `CC(C)CC1CN(c2ncc(-c3ccc(-c4cn[nH]c4)cc3O)nn2)CCN1` (stereo not drawn) [Cpd 46, 2-{3-[3-(2-methylpropyl)piperazin-1-yl]-1,2,4-triazin-6-yl}-5-(1H-pyrazol-4-yl)phenol], the 50% inhibitory concentration (IC50) turned out to be 150 nM. Against the preceding compound, the IC50 is about 16-fold higher.

In turn, `Cc1nnn2cc(-c3ccc(-c4cnc(N5CCN[C@@H](C6CC6)C5)nn4)c(O)c3)ccc12` [Cpd 193, 2-{3-[(3S)-3-cyclopropylpiperazin-1-yl]-1,2,4-triazin-6-yl}-5-(3-methyl[1,2,3]triazolo[1,5-a]pyridin-6-yl)phenol] showed an IC50 of 4.8 nM.

For the compound `CC1(C)CN(c2ncc(-c3ccc(-c4cn[nH]c4)cc3O)nn2)CCN1` [Cpd 56, 2-[3-(3,3-dimethylpiperazin-1-yl)-1,2,4-triazin-6-yl]-5-(1H-pyrazol-4-yl)phenol], the IC50 worked out at 654 nM. Compared with the last compound, the IC50 is about 140-fold higher.

For the compound `Oc1cc(-c2cn[nH]c2)ccc1-c1cnc(N2CCNC(c3ccccc3)C2)nn1` (stereo not drawn) [Cpd 61, 2-[3-(3-phenylpiperazin-1-yl)-1,2,4-triazin-6-yl]-5-(1H-pyrazol-4-yl)phenol], the midpoint of inhibition, the IC50, lay at 1440 nM.

Compound `COc1cc(-c2ccc(-c3cnc(N4C[C@@H](C)N[C@@H](C)C4)nn3)c(O)c2)nn2nc(C)nc12` [Cpd 90, 2-{3-[(3R,5S)-3,5-dimethylpiperazin-1-yl]-1,2,4-triazin-6-yl}-5-(8-methoxy-2-methyl[1,2,4]triazolo[1,5-b]pyridazin-6-yl)phenol] showed a concentration for half-maximal inhibition (IC50) of 6.8 nM.

`Cc1cn2nc(-c3ccc(-c4cnc(N5CCN(C)CC5)nn4)c(O)c3)cc(C)c2n1` [Cpd 104, 5-(2,8-dimethylimidazo[1,2-b]pyridazin-6-yl)-2-[3-(4-methylpiperazin-1-yl)-1,2,4-triazin-6-yl]phenol] came in with an IC50 of 14.6 nM.

In the case of `CN1CCN(c2ncc(-c3ccc(-c4cn[nH]c4)cc3O)nn2)CC1C1CC1` (stereo not drawn) [Cpd 27, 2-[3-(3-cyclopropyl-4-methylpiperazin-1-yl)-1,2,4-triazin-6-yl]-5-(1H-pyrazol-4-yl)phenol], the half-inhibitory concentration (IC50) is 25.1 nM.

The compound `CC(C)[C@H]1CN(c2ncc(-c3ccc(-c4cnn5c4OCCC5)cc3O)nn2)CCN1` [Cpd 282, 5-(6,7-dihydro-5H-pyrazolo[5,1-b][1,3]oxazin-3-yl)-2-{3-[(3S)-3-(propan-2-yl)piperazin-1-yl]-1,2,4-triazin-6-yl}phenol] displayed a 50% inhibitory concentration (IC50) of 131 nM.

With `CCC(C)C1CN(c2ncc(-c3ccc(-c4cn[nH]c4)cc3O)nn2)CCN1` (stereo not drawn) [Cpd 33, 2-{3-[3-(butan-2-yl)piperazin-1-yl]-1,2,4-triazin-6-yl}-5-(1H-pyrazol-4-yl)phenol], the half-maximal inhibitory concentration (IC50) amounted to 41.4 nM.

The compound `C[C@@H]1CN(c2ncc(-c3ccc(-c4cn[nH]c4)cc3O)nn2)C[C@H](C(C)(C)C)N1` [Cpd 247, 2-{3-[(3S,5R)-3-tert-butyl-5-methylpiperazin-1-yl]-1,2,4-triazin-6-yl]-5-(1H-pyrazol-4-yl)phenol] returned a half-inhibitory concentration (IC50) of 201 nM.

In turn, `Cc1nc2c(C)nc(-c3ccc(-c4cnc(N5C[C@@H](C)N[C@@H](C)C5)nn4)c(O)c3)cn2n1` [Cpd 101, 2-{3-[(3R,5S)-3,5-dimethylpiperazin-1-yl]-1,2,4-triazin-6-yl}-5-(2,8-dimethyl[1,2,4]triazolo[1,5-a]pyrazin-6-yl)phenol] showed a concentration for half-maximal inhibition (IC50) of 13 nM. This IC50 is about 15-fold lower than that of the compound before.

Compound `Oc1cc(-c2cc(N3CCC3)ncn2)ccc1-c1cnc(N2CCNC(C3CC3)C2)nn1` (racemic) [Cpd 210, 5-[6-(azetidin-1-yl)pyrimidin-4-yl]-2-{3-[(3RS)-3-cyclopropylpiperazin-1-yl]-1,2,4-triazin-6-yl}phenol] returned a half-maximal inhibitory concentration (IC50) of 975 nM.

`CC1([C@H]2CN(c3ncc(-c4ccc(-c5cnn6c5CCC6)cc4O)nn3)CCN2)CC1` [Cpd 280, 5-(5,6-dihydro-4H-pyrrolo[1,2-b]pyrazol-3-yl)-2-{3-[(3S)-3-(1-methylcyclopropyl)piperazin-1-yl]-1,2,4-triazin-6-yl}phenol] gave an IC50 of 4.5 nM.

Regarding `Cc1cnn(-c2ccc(-c3cnc(N4CCN[C@@H](C(C)C)C4)nn3)c(O)c2)n1` [Cpd 184, 5-(4-methyl-2H-1,2,3-triazol-2-yl)-2-{3-[(3S)-3-(propan-2-yl)piperazin-1-yl]-1,2,4-triazin-6-yl}phenol], 49 nM corresponded to half-maximal inhibition (IC50). Compared with the last compound, the IC50 is about 11-fold higher.

`CN1CCN(c2ncc(-c3ccc(-c4cn[nH]c4)cc3O)nn2)CC1C1COC1` (stereo not drawn) [Cpd 187, 2-{3-[4-methyl-3-(oxetan-3-yl)piperazin-1-yl]-1,2,4-triazin-6-yl}-5-(1H-pyrazol-4-yl)phenol]: the concentration for half-maximal inhibition (IC50) is 401 nM. This IC50 lies about 8.2-fold higher than the previous one.

As to `Oc1cc(-c2cnn3c2CCCC3)ccc1-c1cnc(N2CCNC(C3CC3)C2)nn1` (single isomer, unassigned) [Cpd 277, 2-{3-[(3S)-3-cyclopropylpiperazin-1-yl]-1,2,4-triazin-6-yl}-5-(4,5,6,7-tetrahydropyrazolo[1,5-a]pyridin-3-yl)phenol or 2-{3-[(3R)-3-cyclopropylpiperazin-1-yl]-1,2,4-triazin-6-yl}-5-(4,5,6,7-tetrahydropyrazolo[1,5-a]pyridin-3-yl)phenol], 24.8 nM corresponded to half-maximal inhibition (IC50).

`CC(C)[C@H]1CN(c2ncc(-c3ccc(-c4nc(C#N)cs4)cc3O)nn2)CCN1` [Cpd 273, 2-(3-hydroxy-4-{3-[(3S)-3-(propan-2-yl)piperazin-1-yl]-1,2,4-triazin-6-yl}phenyl)-1,3-thiazole-4-carbonitrile] showed a concentration for half-maximal inhibition (IC50) of 646 nM.

As for `Cn1nc2ccc(-c3ccc(-c4cnc(N5CCN[C@@H](C6CC6)C5)nn4)c(O)c3)nc2n1` [Cpd 202, 2-{3-[(3S)-3-cyclopropylpiperazin-1-yl]-1,2,4-triazin-6-yl}-5-(2-methyl-2H-[1,2,3]triazolo[4,5-b]pyridin-5-yl)phenol], the half-inhibitory concentration (IC50) amounted to 3.7 nM.

With `Cn1nc2cc(-c3cnc(-c4cnc(N5CCN[C@@H](C6CC6)C5)nn4)c(O)c3)cnc2n1` [Cpd 180, 2-{3-[(3S)-3-cyclopropylpiperazin-1-yl]-1,2,4-triazin-6-yl}-5-(2-methyl-2H-[1,2,3]triazolo[4,5-b]pyridin-6-yl)pyridin-3-ol], the half-maximal inhibitory concentration (IC50) is 27.6 nM.

Consider `CC[C@H]1CN(c2ncc(-c3ccc(-c4cn[nH]c4F)cc3O)nn2)C[C@@H](C)N1` [Cpd 223, 2-{3-[(3S,5R)-3-ethyl-5-methylpiperazin-1-yl]-1,2,4-triazin-6-yl]-5-(5-fluoro-1H-pyrazol-4-yl)phenol], for which the IC50 is 7 nM.

In turn, `CC(C)[C@H]1CN(c2ncc(-c3ccc(-c4c[nH]nc4F)cc3O)nn2)CCN1` [Cpd 3, 5-(3-fluoro-1H-pyrazol-4-yl)-2-{3-[(3S)-3-(propan-2-yl)piperazin-1-yl]-1,2,4-triazin-6-yl}phenol] had a half-inhibitory concentration (IC50) of 4.4 nM.

Consider `[2H]C([2H])([2H])Oc1cc(-c2ccc(-c3cnc(N4CCN(C)C(C(C)(C)O)C4)nn3)c(O)c2)ncn1` (stereo not drawn) [Cpd 26, 2-{3-[3-(2-hydroxypropan-2-yl)-4-methylpiperazin-1-yl]-1,2,4-triazin-6-yl}-5-{6-[(^2H3)methyloxy]pyrimidin-4-yl}phenol], for which the 50% inhibitory concentration (IC50) was found to be 24.9 nM.

`C[C@H]1CN(c2ncc(-c3ccc(-c4cn[nH]c4)cc3O)nn2)[C@@H](C)CN1` [Cpd 176, 2-{3-[(2S,5S)-2,5-dimethylpiperazin-1-yl]-1,2,4-triazin-6-yl}-5-(1H-pyrazol-4-yl)phenol] registered an IC50 of 619 nM.

The compound `Cc1cnn(-c2ccc(-c3cnc(N4CCN[C@H](C5CC5)C4)nn3)c(O)c2)n1` [Cpd 183, 2-{3-[(3R)-3-cyclopropylpiperazin-1-yl]-1,2,4-triazin-6-yl}-5-(4-methyl-2H-1,2,3-triazol-2-yl)phenol] had an IC50 of 18.8 nM.

Consider `Cc1nc2c(C3CC3)nc(-c3ccc(-c4cnc(N5C[C@@H](C)N[C@@H](C)C5)nn4)c(O)c3)cn2n1` [Cpd 109, 5-(8-cyclopropyl-2-methyl[1,2,4]triazolo[1,5-a]pyrazin-6-yl)-2-{3-[(3R,5S)-3,5-dimethylpiperazin-1-yl]-1,2,4-triazin-6-yl}phenol], for which the concentration for half-maximal inhibition (IC50) is 22.1 nM.

For the compound `CN1CCN(c2ncc(-c3ncc(-c4cn[nH]c4)cc3O)nn2)CC1` [Cpd 124, 2-[3-(4-methylpiperazin-1-yl)-1,2,4-triazin-6-yl]-5-(1H-pyrazol-4-yl)pyridin-3-ol], inhibition was half-maximal at 609 nM (IC50).

Compound `Cc1cn2cc(-c3cnc(-c4cnc(N5CCN(C)CC5)nn4)c(O)c3)cc(F)c2n1` [Cpd 122, 5-(8-fluoro-2-methylimidazo[1,2-a]pyridin-6-yl)-2-[3-(4-methylpiperazin-1-yl)-1,2,4-triazin-6-yl]pyridin-3-ol] had an IC50 of 41.2 nM. This IC50 is about 15-fold lower than that of the compound before.

`Oc1cc(-c2ccsn2)ccc1-c1cnc(N2CCN[C@@H](C3CC3)C2)nn1` [Cpd 252, 2-{3-[(3S)-3-cyclopropylpiperazin-1-yl]-1,2,4-triazin-6-yl}-5-(1,2-thiazol-3-yl)phenol] gave an IC50 of 16.5 nM. Compared with the last compound, the IC50 is about 2.5-fold lower.

`CC(C)[C@H]1CN(c2ncc(-c3ccc(-c4cnnn4C)cc3O)nn2)CCN1` [Cpd 261, 5-(1-methyl-1H-1,2,3-triazol-5-yl)-2-{3-[(3S)-3-(propan-2-yl)piperazin-1-yl]-1,2,4-triazin-6-yl}phenol] returned an IC50 of 993 nM.

In turn, `Cc1cn2nc(-c3ccc(-c4cnc(N5C[C@@H](C)N(C)[C@@H](C)C5)nn4)c(O)c3)cc(C#N)c2n1` [Cpd 108, 6-(3-hydroxy-4-{3-[(3R,5S)-3,4,5-trimethylpiperazin-1-yl]-1,2,4-triazin-6-yl]phenyl)-2-methylimidazo[1,2-b]pyridazine-8-carbonitrile] registered a 50% inhibitory concentration (IC50) of 19.8 nM.

In turn, `CC(C)[C@H]1CN(c2ncc(-c3ccc(-c4cnsc4)cc3O)nn2)CCN1` [Cpd 250, 2-{3-[(3S)-3-(propan-2-yl)piperazin-1-yl]-1,2,4-triazin-6-yl]-5-(1,2-thiazol-4-yl)phenol] showed an IC50 of 140 nM. This IC50 lies about 7.1-fold higher than the previous one.

Take `CC(C)C1CN(c2ncc(-c3ccc(-c4cc(F)c5nn(C)cc5c4)cc3O)nn2)CCN1` (stereo not drawn) [Cpd 71, 5-(7-fluoro-2-methyl-2H-indazol-5-yl)-2-{3-[3-(propan-2-yl)piperazin-1-yl]-1,2,4-triazin-6-yl}phenol]: the half-maximal inhibitory concentration (IC50) amounted to 4 nM.
